Biological target: T1, DYRK3 (Homo sapiens, UniProt O43781)
T1 construct: purchased Thermo Fisher Scientific (Life Technologies) SelectScreen
Experiment: SelectScreen Z'LYTE
Type: biochemical
Outline: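 Percent values come from Thermo SelectScreen profiling of NU5455, combining activity and binding assays. CSF1R was run in Z'LYTE format at Km app ATP, and CAMK1 in Adapta format with ATP listed at 10.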

T1 sequence (O43781 whole entry): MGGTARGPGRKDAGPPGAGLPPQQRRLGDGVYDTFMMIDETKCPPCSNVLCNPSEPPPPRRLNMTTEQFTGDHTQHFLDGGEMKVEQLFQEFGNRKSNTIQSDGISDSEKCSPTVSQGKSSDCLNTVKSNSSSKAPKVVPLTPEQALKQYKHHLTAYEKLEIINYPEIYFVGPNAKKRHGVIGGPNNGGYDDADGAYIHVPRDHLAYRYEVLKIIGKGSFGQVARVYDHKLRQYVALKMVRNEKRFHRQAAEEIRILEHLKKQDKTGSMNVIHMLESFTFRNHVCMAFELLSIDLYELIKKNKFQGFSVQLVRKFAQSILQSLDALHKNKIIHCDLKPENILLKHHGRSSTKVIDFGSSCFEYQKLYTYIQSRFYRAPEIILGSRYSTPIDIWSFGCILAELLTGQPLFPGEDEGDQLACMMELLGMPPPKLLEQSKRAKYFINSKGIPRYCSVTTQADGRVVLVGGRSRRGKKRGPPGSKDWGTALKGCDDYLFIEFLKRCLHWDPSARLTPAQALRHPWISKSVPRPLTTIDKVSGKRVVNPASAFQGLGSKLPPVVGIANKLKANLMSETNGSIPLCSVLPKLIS

For CN(C(=O)CN1CCOCC1)c1ccc2sc3c(-c4cccc5c(=O)cc(N6CC7CCC(C6)O7)oc45)cccc3c2c1 [NU5455], which inhibition at 1 µM is on record?
The inhibition at 1 µM was 2.6%.

From PMC6934184, “Selective DNA-PKcs inhibition extends the therapeutic index of localized radiotherapy and chemotherapy” (The Journal of Clinical Investigation, 2019)
